Values joined by “and” are separate entries in the source; they are usually repeats but may differ in a detail not shown here. Equal values may be shown once.
Assays:
SYHT0H2 soybeans [1] = assay: Greenhouse: water-soluble iron compounds safening mesotrione, maximum injury; conditions: mesotrione 420 g ai/ha, additive none; maximum injury of 6, 9, 16 days after treatment
Method: An experiment is conducted to look at the safening effect of a variety of water-soluble iron-containing compounds. SYHT0H2 soybean plants are grown in small pots filled with a greenhouse potting mix. […] In all cases, mesotrione was applied at 420 g ai/ha and all treatments contained liquid ammonium sulphate at 2.5% v/v and NIS at 0.25% v/v. The application rates of iron-containing compounds indicated are iron equivalent rates. […] Percent injury levels were assessed 6, 9, and 16 days after treatment. Data presented are maximum injury occurring from any of the treatments at any time during the experiment.

[2] = system: Velvetleaf (Abutilon theophrasti); assay: Greenhouse weed control: HPPD inhibitors with or without Sequestrene 138Fe, velvetleaf; format: in vivo; conditions: percent velvetleaf control 19 DAT
Method: Effect of Tank Mix Applications of HPPD Inhibitors and Sequestrene® 138Fe on Velvetleaf Control. Percent Control Assessed 19 DAT
(§1) A greenhouse experiment is conducted to determine the effect of chelated iron on weed control in the greenhouse. Velvetleaf (Abutilon theophrasti) and common waterhemp (Amaranthus rudis) plants are grown in 4×4-inch pots filled with a greenhouse potting mix. When the plants reached the 2 to 3 inch height (2 to 3 leaf stage), they are sprayed with a reduced rate of an HPPD inhibitor alone or in a tank mix combination with Sequestrene 138Fe at 140 g/ha (equivalent to 8.4 g iron/hectare) or 280 g/ha (equivalent to 16.8 g iron/hectare). […] Observations on percent control are recorded 12, 19, and 25 days after treatment.

[3] = system: common waterhemp (Amaranthus rudis); assay: Greenhouse weed control: HPPD inhibitors with or without Sequestrene 138Fe, common waterhemp; format: in vivo; conditions: common waterhemp control 17 DAT
Method: as §1
Effect of Tank Mix Applications of Various HPPD Inhibitors and Sequestrene 138Fe on Common Waterhemp Control. Injury Assessed 17 DAT
An experiment is performed to look at the effect of applying iron chelates on control of Common Waterhemp using HPPD-inhibiting herbicides. Experiment design is analogous to that outlined in Experiment 3 above.

SYHT0H2 soybeans [4] = assay: Greenhouse: tank-mix and sequential Sequestrene 138Fe, HPPD-inhibitor maximum injury; format: in vivo, soybean; conditions: mesotrione 420, bicyclopyrone 200, tembotrione 368 g ai/ha
Method: Effect of Tank-mix and Sequential Application of Sequestrene® 138 on Mesotrione (Applied as Callisto®)—Maximum Injury in SYHT0H2 Soybeans
An experiment is conducted in the greenhouse to determine the effect of chelated iron (Sequestrene 138Fe containing 6% iron) on HPPD-inhibitor injury to SYHT0H2 soybeans. Soybeans are grown in pots filled with a greenhouse potting mix. When the plants reach the V2-V3 stage, they are sprayed with an HPPD-inhibitor herbicide applied alone (Treatment 1), or in tank mixture with Sequestrene 138Fe (Treatment 2), or sequentially with Sequestrene 138Fe applied 1 day before the HPPD inhibitor (Treatment 3). Sequestrene 138Fe is applied at 2240 g/ha (equivalent to 134 g iron/ha). All treatments are applied with liquid ammonium sulfate @ 2.5% v/v and a non-ionic surfactant (NIS) @ 0.25% v/v in 150 L/ha water. Observations on percent injury are recorded 5, 11, or 22 days after treatment. Data presented are maximum injury observed during the trial.

SYHT04R soybeans = assay: Greenhouse: Sequestrene 138Fe safening of HPPD-inhibitors, injury 6 days after treatment; format: in vivo, soybean; conditions: 6 days after treatment (maximum injury), mesotrione 420, bicyclopyrone 200, isoxaflutole 280 g/ha
Method: Effect of Sequestrene® 138Fe on Various HPPD-inhibitors in SYHT04R Soybeans. Maximum Injury Assessed 6 Days after Treatment
A greenhouse experiment is conducted to determine if Sequestrene® 138Fe was effective in safening various other HPPD herbicide-tolerant soybean events, such as SYHT04R.
SYHT04R soybean plants are grown in 4×4-inch pots filled with a greenhouse potting mix. When the plants reached the V2-V3 growth stage, they are sprayed with an HPPD inhibitor alone or in combination with Sequestrene® 138Fe at 1120 g/ha (equivalent to 67.2 g iron/ha). […] Observations on percent injury are recorded at 6 and 20 days after treatment. Data presented is from the 6 days after treatment rating representing the maximum injury observed during the experiment.

[5] = system: tobacco line overexpressing Avena HPPD; assay: Transgenic tobacco herbicide damage, mesotrione with or without Sequestrene 138; format: in vivo, Nicotiana tabacum cv Samsun (tobacco)
Method: Effect of Iron Chelates in Mitigating Foliar Bleaching Injury from HPPD Inhibiting Herbicides Across Various Transgenic HPPD Tolerant Tobacco Events Over-expressing HPPD Genes from Different Origins
This experiment is carried out to determine whether iron chelates can mitigate the bleaching injury from HPPD inhibiting herbicides across various transgenic HPPD tolerant tobacco events over-expressing HPPD genes from different origins. These experiments are conducted using three distinct HPPD-overexpressing Nicotiana tabacum cv Samsun (tobacco) lines, one over-expressing wheat HPPD, one overexpressing an Avena HPPD and one over-expressing a HPPD from a bacterial source, Pseudomonas florescens. For each transgenic line, five identical clonal plants were sprayed with each herbicide treatment. Two untransformed clonal tobacco plants are also sprayed ([…]) with each herbicide treatment. Assessments are carried out 3, 7 and 14 days after herbicide application.
All scores represent average % herbicide damage. […] An equivalent safening effect is not observed when the same chemical treatments are applied to wild type plants.

[6] = Sequestrene 138Fe 0 g/ha, g ai/ha: mesotrione 26, isoxaflutole 26, bicyclopyrone 50, tembotrione 46, pyrasulfatole 22, topramezone 18
[7] = Sequestrene 138Fe 140 g/ha tank mix, mesotrione 26, isoxaflutole 26 g ai/ha

CS(=O)(=O)c1ccc(C(=O)C2C(=O)CCCC2=O)c([N+](=O)[O-])c1 [Mesotrione, mesotrione]
% Injury (SYHT0H2 soybeans [1]): 17% | % Injury [2, 6]: 100% | % Injury [2, 7]: 100% | % Injury [3, 6]: 77% | % Injury [3, 7]: 78% | % Maximum Injury (SYHT0H2 soybeans [4]; Sequestrene 138Fe 2240 g/ha applied 1 day before herbicide (Treatment 3, sequential)): 7% | % Maximum Injury (SYHT0H2 soybeans [4]; herbicide alone (Treatment 1), maximum of 5, 11, 22 days after treatment): 20% | % Maximum Injury (SYHT0H2 soybeans [4]; tank mix with Sequestrene 138Fe 2240 g/ha (Treatment 2, simultaneous)): 0% | % Injury (SYHT04R soybeans; Sequestrene 138Fe 0 g/ha): 23% | % Injury (SYHT04R soybeans; Sequestrene 138Fe 1120 g/ha): 3% | % herbicide damage ([5]; Trt 13: mesotrione 400 gai/ha alone, 3DAA): 55% and 45% and 50% and 60% and 40% | % herbicide damage ([5]; Trt 13: mesotrione 400 gai/ha alone, 7DAA): 70% and 65% | % herbicide damage ([5]; Trt 13: mesotrione 400 gai/ha alone, 14DAA): 65% and 45% and 50% | % herbicide damage ([5]; Trt 14: mesotrione 500 gai/ha alone, 3DAA): 55% and 60% and 65% | % herbicide damage ([5]; Trt 14: mesotrione 500 gai/ha alone, 7DAA): 75% and 70% | % herbicide damage ([5]; Trt 14: mesotrione 500 gai/ha alone, 14DAA): 70% and 65% and 60% | % herbicide damage ([5]; Trt 15: mesotrione 600 gai/ha alone, 7DAA): 55% and 75% and 78% | % herbicide damage ([5]; Trt 15: mesotrione 600 gai/ha alone, 14DAA): 40% and 65% and 50% and 70% | % herbicide damage ([5]; Trt 16: mesotrione 400 gai/ha + Sequestrene 138 1000 g/ha, 3DAA): 0% and 5% and 10% | % herbicide damage ([5]; Trt 16: mesotrione 400 gai/ha + Sequestrene 138 1000 g/ha, 7DAA): 15% and 10% | % herbicide damage ([5]; Trt 16: mesotrione 400 gai/ha + Sequestrene 138 1000 g/ha, 14DAA): 15% and 10% and 5%
